Reference: paper PMC6571122 (Journal of medicinal chemistry, 2019)
“And” between values parts separate entries of the source, which are not always exact repeats. Equal entries are not always repeated.

Key:
in vitro = conditions: human, liver microsomes
thermodynamic solubility = assay type: physicochemical
[1] = measured LogP octanol/buffer; assay type: physicochemical; conditions: pH 11
kinetic solubility = assay type: physicochemical; conditions: pH 7.4, Solubility (kinetic)
[2] = mouse liver microsome intrinsic clearance; assay type: in vitro ADME; conditions: liver microsomes
brain to blood ratio = conditions: female, CD1, mouse, in vivo, 10 mg/kg
hERG = hERG (Homo sapiens, UniProt Q12809); experiment: CEREP 44 safety screen, [3H] Dofetilide binding; conditions: probe [3H] Dofetilide
Chain of hERG (Q12809 whole entry): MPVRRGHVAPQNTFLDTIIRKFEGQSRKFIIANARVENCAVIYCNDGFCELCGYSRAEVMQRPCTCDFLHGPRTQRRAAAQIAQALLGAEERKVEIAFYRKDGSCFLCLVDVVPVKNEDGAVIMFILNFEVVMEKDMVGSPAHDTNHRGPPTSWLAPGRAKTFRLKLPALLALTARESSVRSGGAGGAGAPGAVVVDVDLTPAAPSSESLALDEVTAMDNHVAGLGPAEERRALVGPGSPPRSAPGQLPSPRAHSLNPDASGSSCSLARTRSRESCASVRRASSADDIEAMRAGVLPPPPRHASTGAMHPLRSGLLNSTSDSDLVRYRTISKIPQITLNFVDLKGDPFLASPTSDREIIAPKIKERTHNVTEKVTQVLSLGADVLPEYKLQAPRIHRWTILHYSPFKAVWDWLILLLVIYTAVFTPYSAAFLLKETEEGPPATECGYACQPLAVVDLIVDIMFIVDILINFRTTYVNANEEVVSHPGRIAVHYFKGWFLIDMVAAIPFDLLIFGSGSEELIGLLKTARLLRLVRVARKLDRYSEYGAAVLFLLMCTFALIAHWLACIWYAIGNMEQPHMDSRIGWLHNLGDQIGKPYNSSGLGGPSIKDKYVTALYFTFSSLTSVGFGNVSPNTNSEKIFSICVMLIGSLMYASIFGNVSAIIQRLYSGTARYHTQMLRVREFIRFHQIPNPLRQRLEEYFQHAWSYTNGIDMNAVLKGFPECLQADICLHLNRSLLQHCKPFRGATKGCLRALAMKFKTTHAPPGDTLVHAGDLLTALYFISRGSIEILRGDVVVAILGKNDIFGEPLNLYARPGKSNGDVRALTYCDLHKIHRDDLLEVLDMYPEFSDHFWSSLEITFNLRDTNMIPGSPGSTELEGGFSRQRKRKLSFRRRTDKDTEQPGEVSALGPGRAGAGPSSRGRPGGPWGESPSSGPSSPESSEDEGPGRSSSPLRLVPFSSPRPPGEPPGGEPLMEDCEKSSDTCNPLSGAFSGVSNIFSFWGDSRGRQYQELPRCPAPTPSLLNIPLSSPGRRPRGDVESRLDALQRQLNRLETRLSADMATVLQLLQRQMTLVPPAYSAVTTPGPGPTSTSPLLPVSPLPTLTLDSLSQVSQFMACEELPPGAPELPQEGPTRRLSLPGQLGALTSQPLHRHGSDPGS

CLint scaled at 1 h, 10 µM (in vitro) | CLint scaled (in vitro) | Structure (SMILES) | further results
18.7 mL/min/kg | – | Nc1ncc(N2CCN(c3cccc(-c4ccncc4)c3)CC2)c(N)n1 [Compound 24, 5-(4-(3-(Pyridin-4-yl)phenyl)piperazin-1-yl)pyrimidine-2,4-diamine] | –
17.4 mL/min/kg | – | Nc1ncc(N2CCN(c3cccc(-c4cnc(C5CC5)nc4)c3)CC2)c(N)n1 [Compound 31, 5-(4-(3-(2-Cyclopropylpyrimidin-5-yl)phenyl)piperazin-1-yl)pyrimidine-2,4-diamine] | –
28.4 mL/min/kg | – | Nc1ncc(N2CCN(c3cccc(-c4ccccc4)c3)CC2)c(N)n1 [Compound 2] | solubility thermodynamic (thermodynamic solubility): < 4 µM; logP [1]: 3.38; solubility kinetic (kinetic solubility): < 4 µM
– | < 8.6 mL/min/kg | Nc1ncc(N2CCN(c3cccc(-c4cncnc4)c3)CC2)c(N)n1 [Compound 26, 5-(4-(3-(Pyrimidin-5-yl)phenyl)piperazin-1-yl)pyrimidine-2,4-diamine] | CLint scaled at 1 h, 10 µM [2]: 2700 mL/min/kg
– | < 8.6 mL/min/kg | Cc1ncc(-c2cccc(N3CCN(c4cnc(N)nc4N)CC3)c2)cn1 [Compound 29, 5-(4-(3-(2-methylpyrimidin-5-yl)phenyl)piperazin-1-yl)pyrimidine-2,4-diamine] | CLint scaled at 1 h, 10 µM [2]: 431 mL/min/kg
10.5 mL/min/kg | – | Nc1ncc(N2CCN(c3cccc(-c4cnc(C(F)(F)F)nc4)c3)CC2)c(N)n1 [Compound 30, 5-(4-(3-(2-(Trifluoromethyl)pyrimidin-5-yl)phenyl)piperazin-1-yl)pyrimidine-2,4-diamine] | –
– | < 8.6 mL/min/kg | CCc1nc(N)nc(N)c1-c1ccc(Cl)cc1 [Compound 1, Pyrimethamine, reference compound] | logP [1]: 2.71
– | < 8.6 mL/min/kg | Nc1ncc(N2CCN(c3cccc(-c4ccnnc4)c3)CC2)c(N)n1 [Compound 28, 5-(4-(3-(Pyridazin-4-yl)phenyl)piperazin-1-yl)pyrimidine-2,4-diamine] | –
– | < 8.6 mL/min/kg | Nc1ncc(N2CCN(c3cccc(-c4cnccn4)c3)CC2)c(N)n1 [Compound 27, 5-(4-(3-(Pyrazin-2-yl)phenyl)piperazin-1-yl)pyrimidine-2,4-diamine] | –
17.7 mL/min/kg | – | Nc1ncc(N2CCN(c3cccc(-c4ccccn4)c3)CC2)c(N)n1 [Compound 22, 5-(4-(3-(pyridin-2-yl)phenyl)piperazin-1-yl)pyrimidine-2,4-diamine] | –
– | < 8.6 mL/min/kg | Nc1ncc(N2CCN(c3cccc(-c4ncccn4)c3)CC2)c(N)n1 [Compound 25, 5-(4-(3-(Pyrimidin-2-yl)phenyl)piperazin-1-yl)pyrimidine-2,4-diamine] | –

Structure (SMILES) | CLint scaled at 1 h, 10 µM (in vitro) | CLint scaled (in vitro) | further results
COc1ncc(-c2cccc(N3CCN(c4cnc(N)nc4N)CC3)c2)cn1 [Compound 3, 5-(4-(3-(2-Methoxypyrimidin-5-yl)phenyl)piperazin-1-yl)pyrimidine-2,4-diamine] | – | < 8.6 mL/min/kg | Kp at 0.5 h (brain to blood ratio): 1.7 ± 0.6; concentration at 0.5 h (brain to blood ratio): 2560 ng/g and 1610 ng/mL; inhibition at 10 µM (hERG): 60%; CLint scaled at 1 h, 10 µM [2]: 56.3 mL/min/kg
